Here are results for four compounds from patent publication US8357705B2 (priority 2008, dated 2013).

The subject of data set [1] is sodium channel binding site 2. The arrangement: species or system rat.

Turning to `Cc1cnc([C@@H](Cc2c[nH]c3ccccc23)NC2CCC(c3ccccc3)(N(C)C)CC2)o1` (stereo partly shown), the melting point (commonly the temperature, or range, at which the solid turns liquid) was in the range of 65 to 70 °C.

`Cc1csc([C@@H](Cc2c[nH]c3ccccc23)NC2CCC(c3ccccc3)(N(C)C)CC2)n1` (stereo partly shown) had a melting point of 71 to 74 °C.

Consider `CN(C)C1(c2ccccc2)CCC(N(C(=O)C(F)(F)F)C(Cc2c[nH]c3ccccc23)c2nnn[nH]2)CC1` (stereo not shown), for which the melting point was 195 to 228 °C.

With `CN(C)C(=O)[C@H](Cc1c[nH]c2ccccc12)NC1CCC(c2ccccc2)(N(C)C)CC1.Cl.Cl` (stereo partly drawn) [Example 6, (S)-2-(4-(dimethylamino)-4-phenylcyclohexylamino)-3-(1H-indol-3-yl)-N,N-dimethylpropanamide dihydrochloride], the “Inhibition (BTX) Mean [% at 10 μM]” value in data set [1] was found to be 15%.
